From US9745339B2 (GRAFFINITY PHARMACEUTICALS GMBH, priority 2012, dated 2017)

Tests used:
[1] = system: Cetuximab; assay: Microtiter plate chromatography of resins: binding and elution of Cetuximab; details: fraction of injected protein bound; 0.5 mg/ml IgG in PBS pH 7.3
How it was run: (§1)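 About 30 μl resin columns loaded with 3.3 cv IgG at 0.5 mg ml^−1 in PBS (or undiluted HCP), washed with 5 cv PBS, eluted with 5 cv glycine pH 2.5. Fractions quantified by Bradford; bound fraction = (mi−mft)/mi, yield = me/mi.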

[2] = Alkaline stability of ligands in 0.5 M sodium hydroxide; format: physicochemical; details: 25° C., 8 days, hydrolysis monitored by LC-MS, read-out: t0.5 (half-life) (converted)
Method: A subset of ligands from Example 1 was tested for its alkaline stability. Ligands were treated with 0.5 M sodium hydroxide at 25° C. for 8 days. Hydrolysis was monitored by LC-MS analysis.

[3] = system: host cell proteins (HCP); assay: Microtiter plate chromatography of resins: binding of host cell proteins; parameters: species or system CHO cell culture; details: fraction of injected undiluted host cell proteins bound
How it was run: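 Undiluted HCP-containing flowthrough from protein A chromatography of CHO serum-free culture was loaded onto ~30 µl packed resin columns in microtiter-plate format. Columns were washed with 5 cv PBS and eluted with glycine pH 2.5, and fractions were quantified by Bradford. Bound fraction = (injected − flowthrough mass)/injected mass.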

[4] = system: poly-IgG from human serum (h-poly-IgG); assay: Microtiter plate chromatography of resins: binding and elution of human poly-IgG; details: fraction of injected protein bound; 0.5 mg/ml IgG in PBS pH 7.3
How it was run: as §1

[5] = target: T1, Bevacizumab (Homo sapiens, UniProt P01857); assay: Microtiter plate chromatography of resins: binding and elution of Bevacizumab; details: for Bevacizumab Bound: fraction of injected protein bound, 0.5 mg/ml IgG in PBS pH 7.3, ligand immobilized on SEPHAROSE 4 FF; for Bevacizumab Yield: mass eluted (glycine pH 2.5) / mass injected
T1 construct: 0.5 mg/ml IgG in PBS pH 7.3; ligand immobilized on SEPHAR; Bevacizumab Yield; other: mass eluted (glycine pH 2.5) / mass injected; kd (dissociation constant, Langmuir isotherm); other: Bevacizumab 0.05-5 mg/ml in PBS pH 7.3, 25° C., at least 3 h; qm (maximum capacity); other: mg Bevacizumab per ml of resin; Langmuir isotherm; t0; fused on or other part: Humanized anti-VEGF-A VH domain joined N-terminally to the IGHG1 constant region (engineered, no UniProt entry)
How it was run: (§2)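 About 30 μl packed resin columns loaded with 3.3 cv IgG at 0.5 mg ml^−1 in PBS or undiluted HCP, washed with 5 cv PBS, eluted with 5 cv glycine pH 2.5. Protein in fractions by Bradford. Bound fraction = (injected − flowthrough)/injected; yield = eluted/injected; selectivity = Bevacizumab bound fraction / HCP bound fraction, truncated beyond 10.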

[6] = system: Palivizumab; assay: Microtiter plate chromatography of resins: binding and elution of Palivizumab; details: fraction of injected protein bound; 0.5 mg/ml IgG in PBS pH 7.3
How it was run: as §1

[7] = target: T1, Bevacizumab; assay: Langmuir isotherms by batch adsorption; format: binding; details: for Kd: Bevacizumab 0.05-5 mg/ml in PBS pH 7.3, 25° C., at least 3 h, read-out: kd (dissociation constant, Langmuir isotherm) (converted); for qm (maximum capacity): mg Bevacizumab per ml of resin, Langmuir isotherm
Method: Experiments were performed with Bevacizumab as antibody. Parameters of Langmuir isotherms for purified antibody were determined by batch adsorption experiments in 96-well microtiter plates. In each well, 10 μl of sorbent slurry (50% v/v) were mixed with 100 μl of protein solution. Initial concentrations varied from 0.05-5 mg/ml in phosphate-buffered saline (0.15 M NaCl, 20 mM phosphate buffer, pH 7.3; PBS). Reactions were agitated vigorously at 25° C. for at least 3 h. Afterwards, antibody concentration in the supernatants were measured by Bradford assay. Data was evaluated by direct fitting of the values with the Langmuir isotherm equation (1).
Parameters of Langmuir isotherms, i.e. dissociation constants Kd and maximum capacities qm, were determined from the measured concentrations in the supernatants. Parameters were estimated by numerical fitting of the model equation derived by Chase (1)

[8] = system: Tocilizumab; assay: Microtiter plate chromatography of resins: binding and elution of Tocilizumab; details: fraction of injected protein bound; 0.5 mg/ml IgG in PBS pH 7.3
How it was run: as §1

[9] = system: Bevacizumab; assay: Microtiter plate chromatography of resins: binding and elution of Bevacizumab; details: fraction of bound Bevacizumab divided by fraction of bound HCP; truncated for values beyond 10
How it was run: as §2

[10] = target: T1, Bevacizumab; assay: Uptake kinetics by batch adsorption (time-scale of binding); details: time after which 80% of equilibrium saturation occurred; 0.75 mg/ml Bevacizumab in PBS, 25° C.
Method: Uptake kinetics was investigated similarly by batch adsorption in 96-well filter plates. Again, 10 μl of sorbent slurry (50% v/v) were mixed with 100 μl of protein solution. […] Reactions were agitated vigorously at 25° C. for up to 80 min. Supernatants were separated rapidly by spinning through filters after 2.5, 5, 10, 20, 40 and 80 minutes and sampled for analysis. Concentrations of the antibody were analyzed by Bradford assay.
For determination of t0.8, measured concentrations in the supernatant were interpolated by fitting of double-exponentials and values of t0.8 were read out from graphs (2).

Compound | Cetuximab Bound [1] [%] | half-life [2] [days] | HCP Bound [3] [%] | h-poly-IgG Bound [4] [%] | Bevacizumab Bound [5] [%] | Bevacizumab Yield [5] [%] | Palivizumab Bound [6] [%] | Kd [7] [µM] | qm (maximum capacity) [7] [mg/mL] | Tocilizumab Bound [8] [%] | Selectivity [9] | t0.8 (time-scale of binding) [10] [min]
Cn1nc(NC(=O)c2ccc3c(c2)ncn3CCCN)c2ccccc21 [Ligand L02, 1-(3-Amino-1-propyl)benzimidazole-5-carboxylic acid N-(1-methyl-3-indazolyl) amide] | 100 | > 41.6 | 28 | 100 | 100 | 101 | 91 | 324 | 41 | 100 |  | 
COc1ccc(NC(=O)c2nn(CCCN)c3ccccc23)cc1C(N)=O [Ligand L04, 1-(3-Amino-1-propyl)indazole-3-carboxylic acid N-(3-carbamoyl-4-methoxyphenyl) amide] | 100 | > 41.6 | 28 | 100 | 100 | 98 | 85 |  |  | 100 | 3.6 | 
Cc1nc2cc(C(=O)Nc3nnc(-c4ccco4)s3)ccc2n1CCOCCOCCNC(=O)CC[C@H](N)C(=O)NCCOCCOCCn1c(C)nc2cc(C(=O)Nc3nnc(-c4ccco4)s3)ccc21 [Ligand L54] | 100 |  | 4 | 100 | 100 | 95 | 100 | 46.9 | 35 | 100 |  | 8.4
Cc1nc2cc(C(=O)Nc3nnc(-c4ccco4)s3)ccc2n1CCOCCOCCN | 100 |  | 0 | 100 | 100 | 97 | 100 | 333 | 45 | 100 |  | 8.9
Cn1c(CCCCCN)nc2cc(C(=O)Nc3nnc(-c4ccco4)s3)ccc21 [Ligand L31, 2-(5-Amino-1-pentyl)-1-methylbenzimidazole-5-carboxylic acid N-[5-(2-furyl)-1,3,4-thiadiazol-2-yl]amide] | 100 |  | 20 | 100 | 100 | 95 | 100 | 117 | 45 | 100 |  | 5.3
Cc1nc2cc(C(=O)Nc3nc(-c4ccncc4)cs3)ccc2n1CCCN [Ligand L51, 1-(3-Amino-1-propyl)-2-methylbenzimidazole-5-carboxylic acid N-[4-(4-pyridyl)thiazol-2-yl] amide] | 100 |  | 15 | 97 | 100 | 95 | 94 |  | 34 | 98 |  | 8.8
Cc1nnc(NC(=O)c2ccc3c(c2)ncn3CCCN)s1 [Ligand L14, 1-(3-Amino-1-propyl)benzimidazole-5-carboxylic acid N-(2-methyl-1,3,4-thiadiazol-5-yl) amide] | 100 | > 41.6 | 16 | 92 | 100 | 100 | 89 | 212 | 35 | 100 |  | 
Cc1nsc(NC(=O)c2ccc3c(c2)ncn3CCCN)n1 [Ligand L36, 1-(3-Amino-1-propyl)benzimidazole-5-carboxylic acid N-(3-methyl-1,2,4-thiadiazol-5-yl) amide] | 99 | > 41.6 | 9 | 81 | 100 | 104 | 93 | 740 | 35 | 90 |  | 
N[C@@H](CCC(=O)NCCOCCOCCn1cnc2cc(C(=O)Nc3nnc(-c4ccco4)s3)ccc21)C(=O)NCCOCCOCCn1cnc2cc(C(=O)Nc3nnc(-c4ccco4)s3)ccc21 [Ligand L53] | 100 |  | 11 | 100 | 100 | 96 | 100 | 131 | 34 | 100 |  | 11.8
NCCOCCOCCn1cnc2cc(C(=O)Nc3nc(-c4ccccn4)cs3)ccc21 | 100 |  | 13 | 100 | 100 | 103 | 98 |  | 41 | 100 |  | 9.0
NCCOCCOCCn1cnc2cc(C(=O)Nc3nnc(-c4ccco4)s3)ccc21 | 99 |  | 4 | 100 | 100 | 99 | 100 | 85.9 | 37 | 100 |  | 6.6
